Molecular target: T1, BTK (Homo sapiens, UniProt Q06187)
T1 construct: BTK Degradative Activity of Exemplary Compounds of the Present Disclosure in a RAMOS Cell Line; host or cells: RAMOS
Assay: BTK degradative activity in a RAMOS cell line (Western blot)
Type: cell-based
Settings: 6 hours after administration, read-out: RAMOS BTK Degradation DC50
Experimental: RAMOS (ATCC) cells were plated in 24-well plates at 8×10^5 cells/well in the RPMI growth medium containing 10% heat-inactivated FBS and 1× Penicillin Streptomycin, and then incubated at 37° C. overnight. The following day, the test compound was administered to the cells by using 1000× compound stock solution prepared in DMSO at various concentrations. After administration of the compound, the cells were then incubated at 37° C. for 6 hours.
Upon completion, the cells were collected by centrifugation and lysed in Laemmli sample buffer (1×; VWR International). Proteins in cell lysate were separated by SDS-PAGE and transferred to Odyssey nitrocellulose membranes (Licor) with Iblot® dry blotting transfer system (ThermoFisher). Nonspecific binding was blocked by incubating membranes with Intercept Blocking Buffer (Licor) for 1 hour at room temperature with gentle shaking. The membranes were then incubated overnight at 4° C. with primary antibodies anti-BTK (Cell signaling, cat. #8547) and anti-GAPDH (Cell signaling, cat. #5179) diluted in Intercept Blocking Buffer containing 0.1% Tween 20. After washing 3 times with TBS-T, the membranes were incubated with IRDye® 800CW goat anti-mouse IgG (1:20,000, Licor) or IRDye® 800CW goat anti-rabbit IgG (1:20,000, Licor) for 1 hour. After TBS-T washes, membranes were rinsed in TBS and scanned on Odyssey® CLx Imaging System (Licor). The bands were quantified using Image Studio™ Software (Licor).
Table 3 summarizes the BTK degradative activity of exemplary compounds of the present disclosure in a RAMOS cell line 6 hours after administration. The DC50 values (i.e., the concentration of test compound at which 50% of the target protein is degraded) were calculated. A designation of “A” corresponds to a DC50 value less than 10 nM. A designation of “B” corresponds to a DC50 value greater than or equal to 10 nM and less than 100 nM. A designation of “C” corresponds to a DC50 value greater than or equal to 100 nM.

T1 sequence (Q06187 whole entry): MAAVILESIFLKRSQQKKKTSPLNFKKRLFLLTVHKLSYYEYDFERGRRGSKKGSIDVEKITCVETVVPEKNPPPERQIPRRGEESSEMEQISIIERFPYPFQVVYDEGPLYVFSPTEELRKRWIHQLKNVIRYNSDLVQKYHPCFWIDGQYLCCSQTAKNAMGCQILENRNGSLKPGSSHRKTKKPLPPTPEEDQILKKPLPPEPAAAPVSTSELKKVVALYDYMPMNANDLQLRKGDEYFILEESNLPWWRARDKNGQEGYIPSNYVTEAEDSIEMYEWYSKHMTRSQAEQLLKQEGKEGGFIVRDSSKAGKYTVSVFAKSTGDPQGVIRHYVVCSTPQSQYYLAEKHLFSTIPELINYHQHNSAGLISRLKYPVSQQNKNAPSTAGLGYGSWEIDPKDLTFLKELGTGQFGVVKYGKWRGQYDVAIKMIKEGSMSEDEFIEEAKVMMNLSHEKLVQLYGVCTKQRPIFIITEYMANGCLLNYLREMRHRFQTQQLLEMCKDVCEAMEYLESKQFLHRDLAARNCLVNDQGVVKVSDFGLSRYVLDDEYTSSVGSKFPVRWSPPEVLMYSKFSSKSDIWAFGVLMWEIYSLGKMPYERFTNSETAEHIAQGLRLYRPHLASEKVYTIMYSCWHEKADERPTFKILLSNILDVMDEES

O=C1CCC(N2C(=O)c3ccc(N4CCN(CCCCCN5CCC(Nc6ncnc7[nH]cc(C(=O)c8ccc(Oc9ccccc9)cc8Cl)c67)CC5)CC4)cc3C2=O)C(=O)N1 (stereo not drawn) [Compound 34, 5-(4-(5-(4-((5-(2-chloro-4-phenoxybenzoyl)-7H-pyrrolo[2,3-d]pyrimidin-4-yl)amino)piperidin-1-yl)pentyl)piperazin-1-yl)-2-(2,6-dioxopiperidin-3-yl)isoindoline-1,3-dione]
DC50: < 10 nM

O=C1CCC(N2C(=O)c3cccc(C#CCCCCCCC(=O)N4CCC(Nc5ncnc6[nH]cc(C(=O)c7ccc(Oc8ccccc8)cc7Cl)c56)CC4)c3C2=O)C(=O)N1 (stereo not drawn) [Compound 35, 4-(9-(4-((5-(2-chloro-4-phenoxybenzoyl)-7H-pyrrolo[2,3-d]pyrimidin-4-yl)amino)piperidin-1-yl)-9-oxonon-1-yn-1-yl)-2-(2,6-dioxopiperidin-3-yl)isoindoline-1,3-dione]
DC50: ≥ 100 nM

O=C1CCC(N2C(=O)c3cccc(C#CCCCCC(=O)N4CCC(Nc5ncnc6[nH]cc(C(=O)c7ccc(Oc8ccccc8)cc7Cl)c56)CC4)c3C2=O)C(=O)N1 (stereo not drawn) [Compound 36, 4-(7-(4-((5-(2-chloro-4-phenoxybenzoyl)-7H-pyrrolo[2,3-d]pyrimidin-4-yl)amino)piperidin-1-yl)-7-oxohept-1-yn-1-yl)-2-(2,6-dioxopiperidin-3-yl)isoindoline-1,3-dione]
DC50: ≥ 100 nM

O=C1CCC(N2C(=O)c3ccc(N4CCN(C5CC(CC(=O)N6CCC(Nc7ncnc8[nH]cc(C(=O)c9ccc(Oc%10ccccc%10)cc9Cl)c78)CC6)C5)CC4)cc3C2=O)C(=O)N1 (stereo not drawn) [Compound 37, 5-(4-(3-(2-(4-((5-(2-chloro-4-phenoxybenzoyl)-7H-pyrrolo[2,3-d]pyrimidin-4-yl)amino)piperidin-1-yl)-2-oxoethyl)cyclobutyl)piperazin-1-yl)-2-(2,6-dioxopiperidin-3-yl)isoindoline-1,3-dione]
DC50: 10 to 100 nM

O=C1CCC(N2C(=O)c3cccc(C#CCCCCCC(=O)N4CCC(Nc5ncnc6[nH]cc(C(=O)c7ccc(Oc8ccccc8)cc7Cl)c56)CC4)c3C2=O)C(=O)N1 (stereo not drawn) [Compound 38, 4-(8-(4-((5-(2-chloro-4-phenoxybenzoyl)-7H-pyrrolo[2,3-d]pyrimidin-4-yl)amino)piperidin-1-yl)-8-oxooct-1-yn-1-yl)-2-(2,6-dioxopiperidin-3-yl)isoindoline-1,3-dione]
DC50: ≥ 100 nM

O=C1CCC(N2Cc3c(C#CCCCCCCC(=O)N4CCC(Nc5ncnc6[nH]cc(C(=O)c7ccc(Oc8ccccc8)cc7Cl)c56)CC4)cccc3C2=O)C(=O)N1 (stereo not drawn) [Compound 39, 3-(4-(9-(4-((5-(2-chloro-4-phenoxybenzoyl)-7H-pyrrolo[2,3-d]pyrimidin-4-yl)amino)piperidin-1-yl)-9-oxonon-1-yn-1-yl)-1-oxoisoindolin-2-yl)piperidine-2,6-dione]
DC50: ≥ 100 nM

O=C1CCC(N2Cc3c(C#CCCCCCC(=O)N4CCC(Nc5ncnc6[nH]cc(C(=O)c7ccc(Oc8ccccc8)cc7Cl)c56)CC4)cccc3C2=O)C(=O)N1 (stereo not drawn) [Compound 40, 3-(4-(8-(4-((5-(2-chloro-4-phenoxybenzoyl)-7H-pyrrolo[2,3-d]pyrimidin-4-yl)amino)piperidin-1-yl)-8-oxooct-1-yn-1-yl)-1-oxoisoindolin-2-yl)piperidine-2,6-dione]
DC50: ≥ 100 nM

O=C1CCC(N2Cc3c(C#CCCCCC(=O)N4CCC(Nc5ncnc6[nH]cc(C(=O)c7ccc(Oc8ccccc8)cc7Cl)c56)CC4)cccc3C2=O)C(=O)N1 (stereo not drawn) [Compound 41, 3-(4-(7-(4-((5-(2-chloro-4-phenoxybenzoyl)-7H-pyrrolo[2,3-d]pyrimidin-4-yl)amino)piperidin-1-yl)-7-oxohept-1-yn-1-yl)-1-oxoisoindolin-2-yl)piperidine-2,6-dione]
DC50: ≥ 100 nM

O=C1CC[C@H](N2Cc3cc(N4CCN(C5CC(CC(=O)N6CCC(Nc7ncnc8[nH]cc(C(=O)c9ccc(Oc%10ccccc%10)cc9Cl)c78)CC6)C5)CC4)ccc3C2=O)C(=O)N1 (stereo partly drawn) [Compound 42, (S)-3-(5-(4-(3-(2-(4-((5-(2-chloro-4-phenoxybenzoyl)-7H-pyrrolo[2,3-d]pyrimidin-4-yl)amino)piperidin-1-yl)-2-oxoethyl)cyclobutyl)piperazin-1-yl)-1-oxoisoindolin-2-yl)piperidine-2,6-dione]
DC50: < 10 nM

O=C1CCC(N2C(=O)c3ccc(N4CCN(C5CC(CC(=O)N6CCC[C@@H](Nc7ncnc8[nH]cc(C(=O)c9ccc(Oc%10ccccc%10)cc9Cl)c78)C6)C5)CC4)cc3C2=O)C(=O)N1 (stereo partly drawn) [Compound 43, 5-(4-(3-(2-((R)-3-((5-(2-chloro-4-phenoxybenzoyl)-7H-pyrrolo[2,3-d]pyrimidin-4-yl)amino)piperidin-1-yl)-2-oxoethyl)cyclobutyl)piperazin-1-yl)-2-(2,6-dioxopiperidin-3-yl)isoindoline-1,3-dione]
DC50: < 10 nM

O=C1CCC(N2C(=O)c3ccc(N4CCN(CCC5CCN(c6ccc(Nc7ncnc8[nH]cc(C(=O)c9ccc(Oc%10ccccc%10)cc9Cl)c78)cc6F)CC5)CC4)cc3C2=O)C(=O)N1 (stereo not drawn) [Compound 44, 5-(4-(2-(1-(4-((5-(2-chloro-4-phenoxybenzoyl)-7H-pyrrolo[2,3-d]pyrimidin-4-yl)amino)-2-fluorophenyl)piperidin-4-yl)ethyl)piperazin-1-yl)-2-(2,6-dioxopiperidin-3-yl)isoindoline-1,3-dione]
DC50: ≥ 100 nM

O=C1CC[C@H](N2Cc3cc(N4CCN(CCC5CCN(c6ccc(Nc7ncnc8[nH]cc(C(=O)c9ccc(Oc%10ccccc%10)cc9Cl)c78)cc6F)CC5)CC4)ccc3C2=O)C(=O)N1 [Compound 45, (S)-3-(5-(4-(2-(1-(4-((5-(2-chloro-4-phenoxybenzoyl)-7H-pyrrolo[2,3-d]pyrimidin-4-yl)amino)-2-fluorophenyl)piperidin-4-yl)ethyl)piperazin-1-yl)-1-oxoisoindolin-2-yl)piperidine-2,6-dione]
DC50: ≥ 100 nM

O=C1CC[C@H](N2Cc3cc(N4CCN(CC5CCN(c6ccc(Nc7ncnc8[nH]cc(C(=O)c9ccc(Oc%10ccccc%10)cc9Cl)c78)cc6F)CC5)CC4)ccc3C2=O)C(=O)N1 [Compound 46, (S)-3-(5-(4-((1-(4-((5-(2-chloro-4-phenoxybenzoyl)-7H-pyrrolo[2,3-d]pyrimidin-4-yl)amino)-2-fluorophenyl)piperidin-4-yl)methyl)piperazin-1-yl)-1-oxoisoindolin-2-yl)piperidine-2,6-dione]
DC50: ≥ 100 nM

O=C1CCC(N2C(=O)c3ccc(N4CCN(CC5CCN(c6ccc(Nc7ncnc8[nH]cc(C(=O)c9ccc(Oc%10ccccc%10)cc9Cl)c78)cc6F)CC5)CC4)cc3C2=O)C(=O)N1 (stereo not drawn) [Compound 47, 5-(4-((1-(4-((5-(2-chloro-4-phenoxybenzoyl)-7H-pyrrolo[2,3-d]pyrimidin-4-yl)amino)-2-fluorophenyl)piperidin-4-yl)methyl)piperazin-1-yl)-2-(2,6-dioxopiperidin-3-yl)isoindoline-1,3-dione]
DC50: ≥ 100 nM

O=C1CCC(N2C(=O)c3ccc(N4CCC(N5CC(CC(=O)N6CCC(Nc7ncnc8[nH]cc(C(=O)c9ccc(Oc%10ccccc%10)cc9Cl)c78)CC6)C5)CC4)cc3C2=O)C(=O)N1 (stereo not drawn) [Compound 48, 5-(4-(3-(2-(4-((5-(2-chloro-4-phenoxybenzoyl)-7H-pyrrolo[2,3-d]pyrimidin-4-yl)amino)piperidin-1-yl)-2-oxoethyl)azetidin-1-yl)piperidin-1-yl)-2-(2,6-dioxopiperidin-3-yl)isoindoline-1,3-dione]
DC50: < 10 nM
